According to US20260028343A1, “Substituted Imidazopyrazine Compounds as Ligand Directed Degraders of IRAK3” (Celgene Corporation, priority 2022, published 2026):

Target: T1, IRAK3-ePL (Homo sapiens, UniProt Q9Y616)
T1 construct: expressed in transfected cells; host or cells: 293T CRBN OE / GSPT1 G575N KI cells, lentiviral transduction, puromycin selection
Assay: IRAK3-ePL Overexpressing Degradation Assay
Assay type: cell-based
Conditions: IRAK3-ePL Lenti-X 293T CRBN/GSPT1 G575N cells, overnight incubation; for Dmax: HEK-293T, top dose 10 μM, maximum percentage loss of target protein; for DC50: read-out: IRAK3 ePL degradation EC50
Procedure: Stable cell lines were generated by the following protocol. 3×10^5 Lenti-X 293T cells (Clonetech) were plated in 0.8 mL of media in a 12-well plate and incubated overnight at 37° C./5% CO2. Packaging plasmid (0.4 μg, pMD), envelope plasmid (0.4 μg, pSP), and lentiviral transfer IRAK3-ePL plasmid (0.8 μg, IRAK3 sequence NM_007199.3) were mixed in 0.1 mL of Opti-MEM and incubated for 5 min. Simultaneously, 2.4 μL of Lipofectamine 2000 (Invitrogen) was added to 0.1 mL of Opti-MEM (Gibco) and incubated for 5 min. The plasmid DNA and lipofectamine were combined and the mixture was allowed to incubate for 20 min.DNA:Lipofectamine Opti-MEM mixtures were then added to previously plated cells dropwise and the cells were incubated for ˜16 h at 37° C./5% CO2. Following incubation, the media was removed and 1.2 mL of fresh media was added per well. Lenti-X 293T cells were incubated for ˜30 h at 37° C./5% CO2. 0.5×10^6 293T^CRBN OE/GSPT1 G575N KI cells were plated in 0.5 mL of media/well of a 12-well plate and incubated for ˜16 h at 37° C./5% CO2. Following incubation, media was removed from the Lenti-X 293T wells and passed through a […]. Part of the viral supernatant was used to transduce cells and the rest was stored at −80° C. Viruses were then added individually (0.5 mL virus) to each well of the 293T^CRBN OE/GSPT1 G575N KI cells, followed by addition of polybrene (10 mg/mL Millipore) to each well at a final concentration of 5.0 μg/mL. Cells were incubated for ˜24 h at 37° C./5% CO2. After aspirating media off plates, cells were washed with DPBS, trypsinized and plated in a 10 cm dish in 15 mL of media and 1 μg/mL puromycin. Following incubation of cells for ˜72 h at 37° C./5% CO2, media was aspirated off plates, and cells were washed with DPBS and trypsinized. The cells were plated in a 15 cm dish in 40 mL of media with 1.0 μg/mL Puromycin (Gibco) and incubated for ˜72 h at 37° C./5% CO2. Following incubation, media was removed and cells were washed with DPBS and trypsinized. The majority of cells were resuspended in Invitrogen freezing media and stored away (˜6-8×10^6 cells/vial).
IRAK3-ePL cellular dose response curve degradation assays were performed by the following protocol. Compounds to be tested were dispensed into a white 384-well tissue-culture treated plate using an acoustic liquid handler. Dilutions were prepared based on a 25 μL assay volume in duplicate 10 point 3-fold serial dilutions starting with a 10 μM dose. Negative control wells were included, which only contain 0.2% DMSO to calculate 100% signal. Positive control wells containing 30 μM Ataluren (luciferase inhibitor) were included to calculate the background signal level. All wells were backfilled to a final DMSO concentration of 0.2% to ensure DMSO uniformity across wells. IRAK3-ePL expressing cells (IRAK3-ePL Lenti-X 293T^CRBN/GSPT1 G575N) were washed, trypsinized, counted, and resuspended in fresh DMEM (Gibco) to give a cell concentration of 200,000 cells/mL. 25 μL of cells (5,000 cells/well) were dispensed into the wells of the 384-well plate prespotted with compounds in the previous step and incubated overnight at 37° C./5% CO2. Following incubation, the 384-well plate was taken out of the incubator and left at room temperature for 30 min. InCELL hunter reagent was prepared according to manufacturer's instructions (EA reagent, lysis buffer, and substrate reagent in a 1:1:4 ratio, Cat #96-0002, DiscoverX), which was added to the 384-well plate 25 μL per well. Following the incubation of the plate for 1 h at room temperature, the luminescence signal was read using a ViewLux plate reader. Data was processed and analyzed in ActivityBase software. In short, the average luminescence values of the positive control wells were subtracted from the rest of the wells for background correction, and all luminescence values were normalized to the DMSO control wells. The average value of the DMSO control wells was set to equal 100% of the relative IRAK3-ePL protein levels. […]

Compound | Dmax [%] | DC50 [nM]
Cc1cccc(-c2cnc(Nc3ccc(N4CCN(C(=O)COc5cccc6c5C(=O)N(C5CCC(=O)NC5=O)C6=O)CC4)cc3)c3nccn23)c1 (stereo not drawn) [Compound 1, 2-(2,6-Dioxopiperidin-3-yl)-4-(2-oxo-2-(4-(4-((5-(m-tolyl)imidazo[1,2-a]pyrazin-8-yl)amino)phenyl)piperazin-1-yl)ethoxy)isoindoline-1,3-dione] | 11 | –
Cc1cccc(-c2cnc(Nc3ccc(N4CCN(C(=O)CCCNC(=O)COc5cccc6c5C(=O)N(C5CCC(=O)NC5=O)C6=O)CC4)cc3)c3nccn23)c1 (stereo not drawn) [Compound 2, 2-((2-(2,6-Dioxopiperidin-3-yl)-1,3-dioxoisoindolin-4-yl)oxy)-N-(4-oxo-4-(4-(4-((5-(m-tolyl)imidazo[1,2-a]pyrazin-8-yl)amino)phenyl)piperazin-1-yl)butyl)acetamide] | 10 | –
Cc1cccc(-c2cnc(Nc3ccc(N4CCN(C(=O)CCOCCNC(=O)COc5cccc6c5C(=O)N(C5CCC(=O)NC5=O)C6=O)CC4)cc3)c3nccn23)c1 (stereo not drawn) [Compound 3, 2-((2-(2,6-Dioxopiperidin-3-yl)-1,3-dioxoisoindolin-4-yl)oxy)-N-(2-(3-oxo-3-(4-(4-((5-(m-tolyl)imidazo[1,2-a]pyrazin-8-yl)amino)phenyl)piperazin-1-yl)propoxy)ethyl)acetamide] | 14 | –
Cc1cccc(-c2cnc(Nc3ccc(N4CCN(C(=O)COc5ccc6c(c5)C(=O)N(C5CCC(=O)NC5=O)C6=O)CC4)cc3)c3nccn23)c1 (stereo not drawn) [Compound 4, 2-(2,6-Dioxopiperidin-3-yl)-5-(2-oxo-2-(4-(4-((5-(m-tolyl)imidazo[1,2-a]pyrazin-8-yl)amino)phenyl)piperazin-1-yl)ethoxy)isoindoline-1,3-dione] | 22 | –
Cc1cccc(-c2cnc(Nc3ccc(N4CCN(C(=O)CCCNC(=O)COc5ccc6c(c5)C(=O)N(C5CCC(=O)NC5=O)C6=O)CC4)cc3)c3nccn23)c1 (stereo not drawn) [Compound 5, 2-((2-(2,6-Dioxopiperidin-3-yl)-1,3-dioxoisoindolin-5-yl)oxy)-N-(4-oxo-4-(4-(4-((5-(m-tolyl)imidazo[1,2-a]pyrazin-8-yl)amino)phenyl)piperazin-1-yl)butyl)acetamide] | 21 | –
Cc1cccc(-c2cnc(Nc3ccc(N4CCN(C(=O)CCOCCNC(=O)COc5ccc6c(c5)C(=O)N(C5CCC(=O)NC5=O)C6=O)CC4)cc3)c3nccn23)c1 (stereo not drawn) [Compound 6, 2-((2-(2,6-Dioxopiperidin-3-yl)-1,3-dioxoisoindolin-5-yl)oxy)-N-(2-(3-oxo-3-(4-(4-((5-(m-tolyl)imidazo[1,2-a]pyrazin-8-yl)amino)phenyl)piperazin-1-yl)propoxy)ethyl)acetamide] | 39 | –
Cc1cccc(-c2cnc(Nc3ccc(N4CCN(CCNC(=O)COc5ccc6c(c5)C(=O)N(C5CCC(=O)NC5=O)C6=O)CC4)cc3)c3nccn23)c1 (stereo not drawn) [Compound 7, 2-((2-(2,6-Dioxopiperidin-3-yl)-1,3-dioxoisoindolin-5-yl)oxy)-N-(2-(4-(4-((5-(m-tolyl)imidazo[1,2-a]pyrazin-8-yl)amino)phenyl)piperazin-1-yl)ethyl)acetamide] | 51 | 1100
Cc1cccc(-c2cnc(Nc3cnn(C4CCN(CCNC(=O)COc5ccc6c(c5)C(=O)N(C5CCC(=O)NC5=O)C6=O)CC4)c3)c3nccn23)c1 (stereo not drawn) [Compound 8, 2-((2-(2,6-Dioxopiperidin-3-yl)-1,3-dioxoisoindolin-5-yl)oxy)-N-(2-(4-(4-((5-(m-tolyl)imidazo[1,2-a]pyrazin-8-yl)amino)-1H-pyrazol-1-yl)piperidin-1-yl)ethyl)acetamide] | 78 | 17
Cc1cccc(-c2cnc(Nc3cccc(C4CCN(CCNC(=O)COc5ccc6c(c5)C(=O)N(C5CCC(=O)NC5=O)C6=O)CC4)c3)c3nccn23)c1 (stereo not drawn) [Compound 9, 2-((2-(2,6-Dioxopiperidin-3-yl)-1,3-dioxoisoindolin-5-yl)oxy)-N-(2-(4-(3-((5-(m-tolyl)imidazo[1,2-a]pyrazin-8-yl)amino)phenyl)piperidin-1-yl)ethyl)acetamide] | 18 | –
Cc1cccc(-c2cnc(Nc3ccc(C4CCN(CCNC(=O)COc5ccc6c(c5)C(=O)N(C5CCC(=O)NC5=O)C6=O)CC4)cc3)c3nccn23)c1 (stereo not drawn) [Compound 10, 2-((2-(2,6-Dioxopiperidin-3-yl)-1,3-dioxoisoindolin-5-yl)oxy)-N-(2-(4-(4-((5-(m-tolyl)imidazo[1,2-a]pyrazin-8-yl)amino)phenyl)piperidin-1-yl)ethyl)acetamide] | 17 | –
Cc1cccc(-c2cnc(Nc3cccc(N4CCN(CCNC(=O)COc5ccc6c(c5)C(=O)N(C5CCC(=O)NC5=O)C6=O)CC4)c3)c3nccn23)c1 (stereo not drawn) [Compound 11, 2-((2-(2,6-Dioxopiperidin-3-yl)-1,3-dioxoisoindolin-5-yl)oxy)-N-(2-(4-(3-((5-(m-tolyl)imidazo[1,2-a]pyrazin-8-yl)amino)phenyl)piperazin-1-yl)ethyl)acetamide] | 22 | –
Cc1cccc(-c2cnc(Nc3cnn(C4CCN(C5CCC6(CC5)CCN(C(=O)c5ccc7c(c5)CN(C5CCC(=O)NC5=O)C7=O)CC6)CC4)c3)c3nccn23)c1 (stereo not drawn) [Compound 12, 3-(1-Oxo-5-(9-(4-(4-((5-(m-tolyl)imidazo[1,2-a]pyrazin-8-yl)amino)-1H-pyrazol-1-yl)piperidin-1-yl)-3-azaspiro[5.5]undecane-3-carbonyl)isoindolin-2-yl)piperidine-2,6-dione] | 76 | 28
